Active and inactive are the calls of the source. The rule behind the calls is not given here.
Legend:
[1] = molecular target: T1, Peroxisome proliferator-activated receptor gamma (Homo sapiens) (UniProt P37231); experiment: (§1) Antagonist activity at PPARgamma (unknown origin); details: filed as antagonist
T1 sequence (whole entry): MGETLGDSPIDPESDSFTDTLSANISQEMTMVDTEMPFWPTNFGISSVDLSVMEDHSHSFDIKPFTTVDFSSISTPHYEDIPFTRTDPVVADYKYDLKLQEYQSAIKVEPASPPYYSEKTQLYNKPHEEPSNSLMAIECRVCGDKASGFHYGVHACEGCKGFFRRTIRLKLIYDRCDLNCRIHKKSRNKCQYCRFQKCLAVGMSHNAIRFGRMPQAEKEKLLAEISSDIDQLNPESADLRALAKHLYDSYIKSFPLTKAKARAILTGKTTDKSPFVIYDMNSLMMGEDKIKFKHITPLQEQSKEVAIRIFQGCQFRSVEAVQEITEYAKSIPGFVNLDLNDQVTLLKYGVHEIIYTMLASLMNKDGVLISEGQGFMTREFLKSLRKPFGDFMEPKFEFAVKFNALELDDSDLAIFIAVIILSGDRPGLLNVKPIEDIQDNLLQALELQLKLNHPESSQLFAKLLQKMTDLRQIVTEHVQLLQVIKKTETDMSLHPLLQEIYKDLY

[2] = molecular target: T2, Peroxisome proliferator-activated receptor gamma (Homo sapiens, UniProt P37231); experiment: as §1
T2 sequence (P37231 whole entry): T1 sequence (whole entry)

[3] = molecular target: T1, Peroxisome proliferator-activated receptor gamma (Homo sapiens); experiment: Inhibition of PPARgamma (unknown origin)

Structure (SMILES)	Activity [1]	also measured
COP(=O)(OC)OC(c1ccc(Cl)cc1)P(=O)(OC)OC (centres undefined)	Active	
O=C(Nc1ccccc1)c1cc([N+](=O)[O-])ccc1Cl		IC50 [2]: 3.3 nM
COc1ccc2nccc(NC(=O)c3cc([N+](=O)[O-])ccc3Cl)c2c1		inhibition [3]: Active
Cc1cc([N+](=O)[O-])ccc1NS(=O)(=O)c1cc(Cl)ccc1Cl	Active	
